# Laboratory results reported in patent publication US11820756B2, “Bradykinin B2 receptor antagonists” (Pharvaris Netherlands B.V., priority 2017, dated 2023).
# Target: T1, human bradykinin B2 receptor (hB2R) (Homo sapiens, UniProt P30411)
# T1 sequence (P30411 1-391): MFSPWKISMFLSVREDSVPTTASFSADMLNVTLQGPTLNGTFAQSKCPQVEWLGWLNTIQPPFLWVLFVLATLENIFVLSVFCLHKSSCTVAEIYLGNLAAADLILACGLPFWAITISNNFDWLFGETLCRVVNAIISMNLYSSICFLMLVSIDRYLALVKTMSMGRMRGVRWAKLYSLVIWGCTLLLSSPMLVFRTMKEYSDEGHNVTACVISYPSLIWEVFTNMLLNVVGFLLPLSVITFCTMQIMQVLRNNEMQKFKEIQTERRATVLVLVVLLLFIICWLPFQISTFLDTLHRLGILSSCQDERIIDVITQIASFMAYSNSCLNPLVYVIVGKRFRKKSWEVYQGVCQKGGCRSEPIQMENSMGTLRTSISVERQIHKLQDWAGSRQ
# Experiment: cell-based human bradykinin B2 receptor calcium mobilization (hB2R-CaM) assay
# Conditions: HTS041C cells, bradykinin at EC80, calcium mobilization; read-out: IC50-value towards human bradykinin B2 receptor (hB2R)
# In short: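 HTS041C cells stably expressing hB2R were serum-reduced, loaded with Calcium 6 dye and pre-incubated with compound (8-point, n=2, 0.1% DMSO) for 25 min at 37° C. Bradykinin was then added at EC80. IC50 came from a 4-parameter logistic fit of the max-min fluorescence signal (485/525 nm).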
row,Compound,IC50 [nM]
1,"Cc1cc(-n2cnc(C)n2)c2cccc(OCc3c(Cl)cc(F)cc3[C@H](C)NC(=O)COC(F)F)c2n1 [Compound 10, (S)—N-(1-(3-chloro-5-fluoro-2-((2-methyl-4-(3-methyl-1H-1,2,4-triazol-1-yl)quinolin-8-yloxy)methyl)phenyl)ethyl)-2-(difluoromethoxy)acetamide]",51 to 250
2,Cc1cc(-n2cnc(C)n2)c2cccc(OCc3c(Cl)cc(F)cc3[C@H](C)NC(=O)[C@@H](C)O)c2n1 [Compound 98],251 to 1000
3,Cc1cc(-n2ncnc2C)c2cccc(OCc3c(Cl)cc(F)cc3[C@H](C)NC(=O)[C@@H](C)O)c2n1 [Compound 97],51 to 250
4,Cc1cc(-n2nccn2)c2cccc(OCc3c(Cl)cc(F)cc3[C@H](C)NC(=O)[C@@H](C)O)c2n1 [Compound 31],51 to 250
5,"Cc1cc(-n2ncc(F)c2C)c2cccc(OCc3c(Cl)cc(F)cc3[C@H](C)NC(=O)[C@@H](C)O)c2n1 [Compound 8, (R)—N—((S)-1-(3-chloro-5-fluoro-2-((4-(4-fluoro-5-methyl-1H-pyrazol-1-yl)-2-methylquinolin-8-yloxy)methyl)phenyl)ethyl)-2-hydroxypropanamide]",51 to 250
6,Cc1cc(-n2cc(F)cn2)c2cccc(OCc3c(Cl)cc(F)cc3[C@H](CO)NC(=O)C(C)(C)O)c2n1 [Compound 105],51 to 250
7,CC[C@H](O)C(=O)N[C@@H](C)c1cc(F)cc(Cl)c1COc1cccc2c(-n3nccn3)cc(C)nc12 [Compound 33],51 to 250
8,Cc1cc(-n2cnc(C)n2)c2cccc(OCc3c(Cl)cc(F)cc3[C@H](C)NC(=O)c3cnco3)c2n1 [Compound 96],51 to 250
9,Cc1cc(-n2nc(C)nc2C)c2cccc(OCc3c(Cl)cc(F)cc3[C@H](C)NC(=O)c3ccon3)c2n1 [Compound 135],51 to 250
10,Cc1cc(-n2cc(F)cn2)c2cccc(OCc3c(Cl)cc(F)cc3[C@H](C)NC(=O)C(C)(C)C(F)(F)F)c2n1 [Compound 48],51 to 250
11,Cc1cc(-n2cc(F)cn2)c2cccc(OCc3c(Cl)cc(F)cc3[C@H](C)NC(=O)c3ccncc3)c2n1 [Compound 125],51 to 250
12,Cc1cc(-n2nc(C)nc2C)c2cccc(OCc3c(Cl)cc(F)cc3[C@H](C)NC(=O)C(C)(C)O)c2n1 [Compound 138],51 to 250
13,Cc1cc(-n2cc(F)cn2)c2cccc(OCc3c(Cl)cc(F)cc3[C@H](C)NC(=O)[C@@H](O)CCN)c2n1 [Compound 66],51 to 250
14,Cc1cc(-n2cc(F)cn2)c2cccc(OCc3c(Cl)cc(F)cc3[C@H](C)NC(=O)[C@H]3COC(C)(C)O3)c2n1 [Compound 62],51 to 250
15,Cc1cc(-n2cc(F)cn2)c2cccc(OCc3c(Cl)cc(F)cc3[C@H](CO)NC(=O)COC(F)F)c2n1 [Compound 106],≤ 50
16,CCOCC(=O)N[C@@H](C)c1cc(F)cc(Cl)c1COc1cccc2c(-c3ncnn3C)cc(C)nc12 [Compound 84],≤ 50
17,COC(=O)[C@@H](O)CC(=O)N[C@@H](C)c1cc(F)cc(Cl)c1COc1cccc2c(-n3cc(F)cn3)cc(C)nc12 [Compound 70],≤ 50
18,"[2H][C@@](CO)(NC(=O)COC(F)F)c1cc(F)cc(Cl)c1COc1cccc2c(-c3ncnn3C)cc(C)nc12 [Compound 11B, (R)—N-(1-Deutero-1-(3-chloro-5-fluoro-2-((2-methyl-4-(1-methyl-1H-1,2,4-triazol-5-yl)quinolin-8-yloxy)methyl)phenyl)-2-hydroxyethyl)-2-(difluoromethoxy)acetamide]",≤ 50
19,CC[C@H](NC(=O)C(F)F)c1cc(F)cc(Cl)c1COc1cccc2c(-n3cc(F)cn3)cc(C)nc12 [Compound 151],51 to 250
20,CC[C@H](NC(=O)COC(F)F)c1cc(F)cc(Cl)c1COc1cccc2c(-c3ncnn3C)cc(C)nc12 [Compound 131],≤ 50
21,Cc1cc(-n2cc(F)cn2)c2cccc(OCc3c(Cl)cc(F)cc3[C@H](C)NC(=O)c3cnoc3C)c2n1 [Compound 89],51 to 250
22,Cc1cc(-n2cc(F)cn2)c2cccc(OCc3c(Cl)cc(F)cc3[C@H](C)NC(=O)[C@@H]3CCOC3)c2n1 [Compound 19],≤ 50
23,CC[C@H](O)C(=O)N[C@@H](C)c1cc(F)cc(Cl)c1COc1cccc2c(-n3cc(F)cn3)cc(C)nc12 [Compound 25],51 to 250
24,Cc1cc(-n2cc(F)cn2)c2cccc(OCc3c(Cl)cc(F)cc3[C@H](C)NC(=O)c3ocnc3C)c2n1 [Compound 91],≤ 50
25,CC[C@H](NC(=O)c1cocn1)c1cc(F)cc(Cl)c1COc1cccc2c(-n3ncnc3C)cc(C)nc12 [Compound 165],≤ 50
26,Cc1cc(-n2cc(F)cn2)c2cccc(OCc3c(Cl)cc(F)cc3[C@H](C)NC(=O)C(C)(C)O)c2n1 [Compound 23],51 to 250
27,Cc1cc(-n2ncnc2C)c2cccc(OCc3c(Cl)cc(F)cc3[C@H](C)NC(=O)c3coc(C)n3)c2n1 [Compound 156],≤ 50

# Results, then the compound that gave them:
row,IC50 [nM],Compound
1,≤ 50,Cc1cc(-c2ncnn2C)c2cccc(OCc3c(Cl)cc(F)cc3[C@H](C)NC(=O)C3CCCCC3)c2n1 [Compound 144]
2,≤ 50,Cc1cc(-c2ncnn2C)c2cccc(OCc3c(Cl)cc(F)cc3[C@H](C)NC(=O)c3cc(C)n(C)n3)c2n1 [Compound 129]
3,≤ 50,COCCC(=O)N[C@@H](CO)c1cc(F)cc(Cl)c1COc1cccc2c(-n3cc(F)cn3)cc(C)nc12 [Compound 107]
4,≤ 50,Cc1cc(-c2ncnn2C)c2cccc(OCc3c(Cl)cc(F)cc3[C@H](CO)NC(=O)COC(F)F)c2n1 [Compound 190]
5,≤ 50,CO[C@@H](C)C(=O)N[C@@H](C)c1cc(F)cc(Cl)c1COc1cccc2c(-n3nccn3)cc(C)nc12 [Compound 29]
6,≤ 50,Cc1cc(-c2ncc(C#N)n2C)c2cccc(OCc3c(Cl)cc(F)cc3[C@H](C)NC(=O)C(C)F)c2n1 (some centres unmarked) [Compound 207]
7,≤ 50,CC[C@H](NC(=O)c1cocn1)c1cc(F)cc(Cl)c1COc1cccc2c(-c3ncnn3C)cc(C)nc12 [Compound 155]
8,≤ 50,Cc1cc(-n2cc(F)cn2)c2cccc(OCc3c(Cl)cc(F)cc3[C@H](C)NC(=O)C3(C)CCCO3)c2n1 (some centres unmarked) [Compound 110]
9,≤ 50,Cc1cc(-c2ncnn2C)c2cccc(OCc3c(Cl)cc(F)cc3[C@H](C)NC(=O)c3cnco3)c2n1 [Compound 120]
10,≤ 50,Cc1cc(-c2ncnn2C)c2cccc(OCc3c(Cl)cc(F)cc3[C@H](C)NC(=O)c3cc(C)on3)c2n1 [Compound 127]
11,≤ 50,Cc1cc(-n2nccn2)c2cccc(OCc3c(Cl)cc(F)cc3[C@H](C)NC(=O)[C@H]3CCOC3)c2n1 [Compound 30]
12,≤ 50,Cc1cc(-n2cc(F)cn2)c2cccc(OCc3c(Cl)cc(F)cc3[C@H](C)NC(=O)c3cocn3)c2n1 [Compound 82]
13,≤ 50,Cc1cc(-n2cc(F)cn2)c2cccc(OCc3c(Cl)cc(F)cc3[C@H](C)NC(=O)C3(C)COC3)c2n1 [Compound 58]
14,≤ 50,Cc1cc(-c2ncnn2C)c2cccc(OCc3c(Cl)cc(F)cc3[C@H](C)NC(=O)[C@@H]3CC[C@H](C)O3)c2n1 [Compound 133]
15,≤ 50,[2H][C@@](C)(NC(=O)C(F)F)c1cc(F)cc(Cl)c1COc1cccc2c(-c3ncnn3C)cc(C)nc12 [Compound 183]
16,≤ 50,Cc1cc(-c2ncnn2C)c2cccc(OCc3c(Cl)cc(F)cc3[C@H](C)NC(=O)C(C)(C)O)c2n1 [Compound 64]
17,≤ 50,CCn1ncnc1-c1cc(C)nc2c(OCc3c(Cl)cc(F)cc3[C@H](C)NC(=O)c3ccon3)cccc12 [Compound 141]
18,≤ 50,Cc1cc(-n2cc(F)cn2)c2cccc(OCc3c(Cl)cc(F)cc3[C@H](C)NC(=O)[C@@H]3CCCO3)c2n1 [Compound 14]
19,≤ 50,COCC(=O)N[C@@H](C)c1cc(F)cc(Cl)c1COc1cccc2c(-n3cc(F)cn3)cc(C)nc12 [Compound 12]
20,≤ 50,[2H][C@@](C)(NC(=O)CC(F)(F)F)c1cc(F)cc(Cl)c1COc1cccc2c(-c3ncnn3C)cc(C)nc12 [Compound 181]
21,≤ 50,Cc1cc(-c2ncnn2C)c2cccc(OCc3c(Cl)cc(F)cc3[C@H](C)NC(=O)c3ccncc3)c2n1 [Compound 163]
22,≤ 50,Cc1cc(-c2ncnn2C)c2cccc(OCc3c(Cl)cc(F)cc3[C@H](C)NC(=O)C(F)F)c2n1 [Compound 147]
23,≤ 50,[2H][C@@](C)(NC(=O)c1cocn1)c1cc(F)cc(Cl)c1COc1cccc2c(-n3ncnc3C)cc(C)nc12 [Compound 198]
24,≤ 50,CC[C@H](NC(=O)C(F)F)c1cc(F)cc(Cl)c1COc1cccc2c(-c3ncnn3C)cc(C)nc12 [Compound 148]
25,≤ 50,Cc1cc(-c2ncnn2C)c2cccc(OCc3c(Cl)cc(F)cc3[C@H](C)NC(=O)COCC3CC3)c2n1 [Compound 117]
26,≤ 50,Cc1cc(-c2ccnn2C)c2cccc(OCc3c(Cl)cc(F)cc3[C@H](C)NC(=O)CO)c2n1 [Compound 194]
